# Reference: patent publication EP0370499A2, “Use of benzomorphanes in cytoprotection” (BOEHRINGER INGELHEIM KG, priority 1988, dated 1990)
# Test system: Hippocampusschnitt
# Assay: Hippocampal slice: epileptic discharges in magnesium-free medium (stimulation of Schaffer collaterals, extracellular recording at CA1 pyramidal cells)
# Format: cell-based
# Details: addition of 100 mmol, Abb. 1c
# Excerpt: Als Testsystem für den Nachweis der zytoprotektiven Eigenschaften der Benzomorphanderivate dient der Hippocampusschnitt. Über Mikroelektroden werden die Schäfferkollaterale des sich in einer Perfusionskammer befindenden Hippocampusschnittes stimuliert und die auftretenden Summenpotentiale extrazellulär an den Pyramidenzellen der CAI-Region abgeleitet [H.L. Haas, B. Schaerer und M. Vosmansky, J. Neuroscience Meth. 1 (1979) 323].
# Eine typische Stimulation in einem magnesiumhaltigem Medium ist in Abb. 1a dargestellt. - Abb. 1b zeigt multiple epileptische Entladungen in einem magnesiumfreien Medium. Diese Entladungen werden - wie Abb. 1c belegt - beispielsweise durch Zugabe von […] (-)-(1R,5R,9R)-N-(2-Furylmethyl)-5,9-dimethyl-2′- hydroxy-6,7-benzomorphan gehemmt.
smiles,measurement,value
"C[C@H]1[C@H]2Cc3ccc(O)cc3[C@]1(C)CCN2Cc1ccco1 [(-)-(1R,5R,9R)-N-(2-Furylmethyl)-5,9-dimethyl-2′-hydroxy-6,7-benzomorphan]",multiple epileptische Entladungen,gehemmt
